PubChem BioAssay AID248 (DTP/NCI, 2004)
Toxic doses and inconclusive results are not listed. Rule as the data show it: active = T/C of 150% or more; inactive = T/C below 125%.

Test system: L1210 leukemia ip in BDF1 mice, survival T/C
Assay: NCI In Vivo Anticancer Drug Screen. Data for tumor model L1210 Leukemia (intraperitoneal) in B6D2F1 (BDF1) mice
Details: endpoint: mean survival time, higher = longer survival
Procedure, shortened: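 Transplanted-tumor mice were given test agent; controls received vehicle only. Survival readings from the two groups were divided (treated over control).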

[1] = dose: 100.0 mg/kg/injection, schedule: Q01DX001 (ip), vehicle: carboxymethylcellulose (CMC)
[2] = dose: 100.0 mg/kg/injection, schedule: Q04DX003 (ip), vehicle: saline with Tween-80
[3] = dose: 200.0 mg/kg/injection, schedule: Q01DX001 (ip), vehicle: carboxymethylcellulose (CMC)
[4] = dose: 200.0 mg/kg/injection, schedule: Q04DX003 (ip), vehicle: saline with Tween-80
[5] = dose: 400.0 mg/kg/injection, schedule: Q01DX001 (ip), vehicle: carboxymethylcellulose (CMC)
[6] = dose: 400.0 mg/kg/injection, schedule: Q04DX003 (ip), vehicle: saline with Tween-80
[7] = dose: 100.0 mg/kg/injection, schedule: Q01DX009 (ip), vehicle: saline
[8] = dose: 100.0 mg/kg/injection, schedule: Q04DX003 (ip), vehicle: saline
[9] = dose: 200.0 mg/kg/injection, schedule: Q01DX009 (ip), vehicle: saline
[10] = dose: 200.0 mg/kg/injection, schedule: Q04DX003 (ip), vehicle: saline
[11] = dose: 400.0 mg/kg/injection, schedule: Q04DX003 (ip), vehicle: saline
[12] = dose: 400.0 mg/kg/injection, schedule: Q01DX001 (ip), vehicle: saline
[13] = dose: 100.0 mg/kg/injection, schedule: Q01DX009 (ip), vehicle: saline with Tween-80
[14] = dose: 200.0 mg/kg/injection, schedule: Q01DX009 (ip), vehicle: saline with Tween-80

Measured: T/C

O=c1/c(=C/c2ccccc2)c2cccc3cccc1c32
inactive: dose: 25.0 mg/kg/injection, schedule: Q01DX001 (ip), vehicle: saline with Tween-80 97 % of control | dose: 50.0 mg/kg/injection, schedule: Q01DX001 (ip), vehicle: saline with Tween-80 93 % of control | dose: 100.0 mg/kg/injection, schedule: Q01DX001 (ip), vehicle: saline with Tween-80 97 % of control

N#CC(C#N)=C1c2ccccc2C(=O)c2ccccc21
inactive: dose: 50.0 mg/kg/injection, schedule: Q01DX001 (ip), vehicle: carboxymethylcellulose (CMC) 104 % of control | [1] 104 % of control | [2] 97 % of control | [3] 104 % of control | [4] 98 % of control | [5] 106 % of control | [6] 87 % of control

CCCNC(C)C(=O)c1ccccc1 (stereo not given)
inactive: dose: 12.5 mg/kg/injection, schedule: Q01DX009 (ip), vehicle: saline 93 % of control | dose: 25.0 mg/kg/injection, schedule: Q01DX009 (ip), vehicle: saline 97 % of control | dose: 50.0 mg/kg/injection, schedule: Q01DX009 (ip), vehicle: saline 108 % of control | [7] 86 % of control

CSc1ccc(NC(=O)Nc2ccccc2C(N)=O)cc1
inactive: [7] 108 % of control | [8] 92 % of control | [9] 114 % of control | [10] 98 % of control | [11] 95 % of control

Cc1cc(NC(C)C)c(C)cc1NC(C)C
inactive: dose: 12.5 mg/kg/injection, schedule: Q04DX002 (ip), vehicle: Klucel (hydroxypropylcellulose) (HPC) 93 % of control | dose: 25.0 mg/kg/injection, schedule: Q04DX002 (ip), vehicle: Klucel (hydroxypropylcellulose) (HPC) 96 % of control

O=C(O)CS(=O)(=O)C(c1ccccc1)c1ccccc1
inactive: dose: 100.0 mg/kg/injection, schedule: Q01DX001 (ip), vehicle: saline 94 % of control | dose: 200.0 mg/kg/injection, schedule: Q01DX001 (ip), vehicle: saline 97 % of control | [12] 96 % of control

Nc1[nH]nc2nc(-c3ccc(Cl)cc3)cnc12
inactive: dose: 50.0 mg/kg/injection, schedule: Q01DX009 (ip), vehicle: saline with Tween-80 104 % of control | [13] 101 % of control | [2] 95 % of control | [14] 98 % of control | [4] 95 % of control

Cc1nc2c(-c3ccccc3)cc(Cl)cc2s1
inactive: [8] 100 % of control | [10] 101 % of control | [11] 95 % of control

O=C(N=Nc1c(O)[nH]c2ccccc12)c1ccccc1[N+](=O)[O-]
inactive: [1] 87 % of control | [3] 90 % of control | [5] 96 % of control

O=S1(=O)C2C=CCC1C(O)CC2 (stereo not given)
inactive: [7] 101 % of control | [9] 99 % of control | dose: 400.0 mg/kg/injection, schedule: Q01DX009 (ip), vehicle: saline 101 % of control

O=C1CSC(=S)N1c1ccc(Cl)c(Cl)c1
inactive: dose: 50.0 mg/kg/injection, schedule: Q04DX003 (ip), vehicle: saline with Tween-80 96 % of control | [2] 101 % of control | [4] 104 % of control

OC(c1ccccc1)(c1ccccc1)C1C(Cc2ccccc2)C1Cc1ccccc1 (stereo not given)
inactive: dose: 100.0 mg/kg/injection, schedule: Q01DX001 (ip), vehicle: steriod suspending solution 110 % of control | dose: 200.0 mg/kg/injection, schedule: Q01DX001 (ip), vehicle: steriod suspending solution 112 % of control | dose: 400.0 mg/kg/injection, schedule: Q01DX001 (ip), vehicle: steriod suspending solution 104 % of control

NC(N)=NC(N)=Nc1ccc(S(=O)(=O)c2ccc(N=C(N)N=C(N)N)cc2)cc1
inactive: [13] 95 % of control | [14] 95 % of control

CCC(C)C(CN)(CCN(C)C)Cc1cccc2ccccc12 (stereo not given)
inactive: dose: 12.5 mg/kg/injection, schedule: Q04DX003 (ip), vehicle: saline 93 % of control | dose: 25.0 mg/kg/injection, schedule: Q04DX003 (ip), vehicle: saline 96 % of control | dose: 50.0 mg/kg/injection, schedule: Q04DX003 (ip), vehicle: saline 101 % of control

COC(=O)CNC(=O)C(CSCc1ccccc1)NC(=O)OCc1ccccc1 (stereo not given)
inactive: dose: 100.0 mg/kg/injection, schedule: Q04DX003 (ip), vehicle: Klucel (hydroxypropylcellulose) (HPC) 94 % of control | dose: 200.0 mg/kg/injection, schedule: Q04DX003 (ip), vehicle: Klucel (hydroxypropylcellulose) (HPC) 89 % of control | dose: 400.0 mg/kg/injection, schedule: Q04DX003 (ip), vehicle: Klucel (hydroxypropylcellulose) (HPC) 99 % of control

N#C/C(=C1C=C(Br)/C(=N\O)C=C\1Cl)c1cccc2ccccc12
inactive: [13] 98 % of control | [2] 95 % of control | [14] 93 % of control | [4] 90 % of control | dose: 400.0 mg/kg/injection, schedule: Q01DX009 (ip), vehicle: saline with Tween-80 94 % of control | [6] 104 % of control

CC(=O)OCC1OC(n2ccc(NC(=S)Nc3ccn(C4OC(COC(C)=O)C(OC(C)=O)C4OC(C)=O)c(=O)n3)nc2=O)C(OC(C)=O)C1OC(C)=O (stereo not given)
inactive: [12] 100 % of control | [11] 105 % of control | dose: 800.0 mg/kg/injection, schedule: Q01DX001 (ip), vehicle: saline 96 % of control | dose: 800.0 mg/kg/injection, schedule: Q01DX009 (ip), vehicle: saline 116 % of control | dose: 800.0 mg/kg/injection, schedule: Q04DX003 (ip), vehicle: saline 98 % of control | dose: 1600.0 mg/kg/injection, schedule: Q01DX001 (ip), vehicle: saline 96 % of control | dose: 1600.0 mg/kg/injection, schedule: Q04DX003 (ip), vehicle: saline 100 % of control

CC1C/C=C2\CSC(NC(=O)/C3=C\N(C/C=C/C=C/C(O)CC(O)CC(=O)N3)C2=O)C(=O)O1 (stereo not given)
inactive: dose: 10.6 mg/kg/injection, schedule: Q01DX Z (ip), vehicle: saline 100 % of control | dose: 16.0 mg/kg/injection, schedule: Q01DX Z (ip), vehicle: saline 106 % of control | dose: 24.0 mg/kg/injection, schedule: Q01DX Z (ip), vehicle: saline 106 % of control | dose: 36.0 mg/kg/injection, schedule: Q01DX Z (ip), vehicle: saline 103 % of control | [1] 110 % of control | [3] 94 % of control | [5] 97 % of control

CSc1cc2c(cc1NC(C)=O)Cc1ccccc1-2
inactive: [1] 93 % of control | [3] 95 % of control | [5] 95 % of control

Cc1nc(C(N)=O)c2nc3c4ccccc4c4ccccc4c3nn12
inactive: dose: 25.0 mg/kg/injection, schedule: Q04DX002 (ip), vehicle: saline with Tween-80 94 % of control | dose: 50.0 mg/kg/injection, schedule: Q04DX002 (ip), vehicle: saline with Tween-80 91 % of control | dose: 100.0 mg/kg/injection, schedule: Q04DX002 (ip), vehicle: saline with Tween-80 87 % of control | dose: 200.0 mg/kg/injection, schedule: Q04DX002 (ip), vehicle: saline with Tween-80 89 % of control | dose: 400.0 mg/kg/injection, schedule: Q04DX002 (ip), vehicle: saline with Tween-80 92 % of control

O=C(Nc1ccc(C2=NCCCN2)cc1)c1ccc(C(=O)Nc2ccc(C3=NCCCN3)cc2)c(Cl)c1
inactive: dose: 0.04 mg/kg/injection, schedule: Q01DX015 (ip), vehicle: water 98 % of control | dose: 0.09 mg/kg/injection, schedule: Q01DX015 (ip), vehicle: water 101 % of control | dose: 0.18 mg/kg/injection, schedule: Q01DX015 (ip), vehicle: water 95 % of control | dose: 0.37 mg/kg/injection, schedule: Q01DX015 (ip), vehicle: water 101 % of control | dose: 0.75 mg/kg/injection, schedule: Q01DX015 (ip), vehicle: water 107 % of control
